Among the data in publication PMC3907505, “The Mechanism of Intralipid®-Mediated Cardioprotection Complex IV Inhibition by the Active Metabolite, Palmitoylcarnitine, Generates Reactive Oxygen Species and Activates Reperfusion Injury Salvage Kinases” (PLoS ONE, 2014) are IC50 values, retold here.

The target of the experiment is T1, Complex IV (cytochrome c oxidase) (Rattus norvegicus, UniProt P00406+P05503).
T1 construct: gene Mt-co1; native complex in saponin-permeabilized left ventricular (apex) cardiac fibers; dimer of 13 subunits per monomer; with Cytochrome c oxidase subunit 3; Cytochrome c oxidase subunit 4 isoform 1, mitochondrial; Cytochrome c oxidase subunit 5A, mitochondrial; Cytochrome c oxidase subunit 5B, mitochondrial; Cytochrome c oxidase subunit 6A2, mitochondrial; Cytochrome c oxidase subunit 6B1; Cytochrome c oxidase subunit 6C; Cytochrome c oxidase subunit 7A1, mitochondrial; Cytochrome c oxidase subunit 7B, mitochondrial; Cytochrome c oxidase subunit 7C, mitochondrial; Cytochrome c oxidase subunit 8B, mitochondrial
In words: high-resolution respirometry (O2 consumption), permeabilized cardiac fibers. Type of experiment: biochemical. The note with it: ascorbate 2 mM/TMPD 0.5 mM as complex IV substrates, pH 7.1, 30°C, 1 g/l BSA in medium. An excerpt:
high-resolution respirometry (O2 consumption), permeabilized cardiac fibers on Complex IV (cytochrome c oxidase)

As usually defined, the IC50 is the midpoint of a concentration-inhibition curve. Turning to `CCCCCCCCCCCCCCCC(=O)O[C@H](CC(=O)[O-])C[N+](C)(C)C` [C16∶0c, Palmitoylcarnitine], inhibition (Hillslope −0.86) was half-maximal at 72.3 µM (IC50).

Take `CCCCC/C=C\C/C=C\CCCCCCCC(=O)O[C@H](CC(=O)[O-])C[N+](C)(C)C` [C18∶2c, cis,cis-9,12-octadecadienoyl-L-carnitine]: where the note is “Hillslope −1.58”, the concentration for half-maximal inhibition (IC50) came to 65.6 µM.
